The test system of data set [1] is healthy volunteers. Kind of data set: Clinical trial: effect on heart rate (EmaxHR) from 12-lead Holter ECG recordings. In kind it is in vivo, human. The note with it: for mean EmaxHR (maximum change from baseline in time matched, hourly average HR): Day 10, monotherapy at steady state, siponimod 2 mg qd after titration or propranolol 80 mg LA qd, placebo 11.73 bpm. The text has this: (§1) Healthy volunteers (men and women) aged between 18 and 55 years with a body mass index of 18-30 kg/m^2 were included in the study. Subjects were required to have an FEV1 of ≥90% of predicted normal, a systolic blood pressure (BP) of 90-140 mm Hg, a diastolic BP of 50-90 mm Hg and a pulse rate of 50-90 bpm. Women of childbearing potential, pregnant or lactating women, homozygous carriers for CYP2C9*3 genotype, smokers, those with current or medical history of cardiovascular disorders or bronchospastic disease were excluded from this study. At screening, a 24 h Holter recording was performed on all subjects to exclude those with any significant arrhythmia.
This was a double-blind, randomised, placebo-controlled study consisting of the following periods: screening (28 days), baseline evaluation (2 days), treatment (20 days) and study completion evaluation (approximately 10 days after the last drug administration; FIG. 1). Eligible subjects were domiciled for 22 days, starting approximately 36 h before dosing until 24 h post-dose after Day 20. The baseline evaluations were performed on Day −2 or Day −1. Subjects were randomised to one of the four treatment groups (A, B, C and D) in a ratio of 1:1:1:1. […] In Group A, treatment was initiated with the siponimod dose-titration regimen (Days 1-6) followed by siponimod 2 mg (Days 7-20). Siponimod was uptitrated by one administration of 0.25 mg siponimod on day 1, one administration of 0.25 mg siponimod on day 2, one administration of 0.5 mg siponimod on day 3, one administration of 0.75 mg siponimod on day 4, one administration of 1.25 mg siponimod on day 5 and one administration of 2 mg siponimod on day 6, followed by a steady dose of 2 mg siponimod qd thereafter. […] These subjects concomitantly received siponimod-placebo (Days 1-10), followed by the siponimod dose-titration regimen (Days 11-16) and siponimod 2 mg (Days 17-20). […]
(§2) The HR and bradyarrhythmias were evaluated from the 12-Lead Holter electrocardiogram (ECG) recordings. […] The hourly average HR in each post-dose hour was calculated from the 60 intervals of per minute HR data. […]

The subject of data set [2] is healthy volunteers. Briefly: Clinical trial: bradyarrhythmias (AVBs, sinus pauses) from 24 h post-dose Holter evaluation. In kind it is in vivo, human.
Source text: as §1
This was a double-blind, randomised, placebo-controlled study consisting of the following periods: screening (28 days), baseline evaluation (2 days), treatment (20 days) and study completion evaluation (approximately 10 days after the last drug administration; FIG. 1). Eligible subjects were domiciled for 22 days, starting approximately 36 h before dosing until 24 h post-dose after Day 20. […]
as §2
The cardiac rhythm was evaluated from the 24 h post-dose Holter evaluation as mentioned earlier. […]

For data set [3] the following is noted: deduced on the basis of previous reports (Legangneux 2013, Murdoch 1991); cited from earlier work.

Each structure is given as a SMILES string.

Consider 2 compounds from patent US12533340B2, “Treatment of autoimmune disease in a patient receiving additionally a beta-blocker” (NOVARTIS AG, priority 2015, dated 2026).

For the compound `CC(C)NCC(O)COc1cccc2ccccc12` (stereo not drawn) [propranolol, reference compound], the “mean EmaxHR (maximum change from baseline in time matched, hourly average HR)” value with healthy volunteers [1] is reported as 17.85 bpm. In addition, in the data set with healthy volunteers [2] (propranolol only treatment), the “episodes of Mobitz I AVB” value is reported as “Two”.

For the compound `CCc1cc(/C(C)=N/OCc2ccc(C3CCCCC3)c(C(F)(F)F)c2)ccc1CN1CC(C(=O)O)C1` [siponimod, 1-{4-[1-((E)-4-cyclohexyl-3-trifluoromethyl-benzyloxyimino)-ethyl]-2-ethyl-benzyl}-azetidine-3-carboxylic acid], the “mean EmaxHR (maximum change from baseline in time matched, hourly average HR)” value with healthy volunteers [1] came to 16.79 bpm. Moreover, the “mean difference in EmaxHR, siponimod alone versus propranolol alone” value in the data set with healthy volunteers [1] (Day 10, 95% CI -4.98, 2.87, P=0.595) is reported as −1.06 bpm. The “time to reach a pharmacokinetic steady state” value in data set [3] is on record as “approximately 10 days”. Besides, in the data set with healthy volunteers [2] (24 h Holter on the evaluation days), the “episodes of second-degree AVBs or SPs of >3 seconds duration” value is recorded as “no episodes”.
